Measured values: patent publication US8557380B2, “Form of hydroquinone and production thereof” (Rhodia Operations, priority 2006, dated 2013)
Like-named read-outs stand apart in the source and are kept apart here.

How the values were obtained:
[1] = stirred, final concentration 4.8% by weight
Method: These measurements correspond to a test which consists in measuring the time necessary to dissolve said amount in water maintained at ambient temperature (20° C.) and kept stirred, for example using a propeller stirrer with 4 inclined blades.

[2] = particles with dimensions of less than 100 μm
Source text: The level of the fine particles is defined as the percentage by weight of the particles with dimensions of less than 100 μm.
Particles which pass through a sieve having a mesh size of 100 μm are regarded according to the invention as fine particles.

[3] = undried product
Method: The densities are measured on an undried product according to the test described in the European Phatmacopeia standard [Volume 1, p. 256 (2004), 5th edition], with the only difference that the 250 ml of test specimen is replaced by a 1 liter test specimen.

[4] = final concentration 2% by weight
Method: A similar test is carried out in order to determine the rate of dissolution of the flakes in acrylic acid.
The test consists in defining the time necessary to dissolve the amount of flakes necessary in order to obtain a final concentration of hydroquinone in the acrylic acid of 2% by weight.

[5] = sieve mesh size 2.5 mm
Source text: In order to define the particle size of the product of the invention, the percentage by weight of the particles with dimensions of less than 2.5 mm, that is to say particles which pass through a sieve having a mesh size of 2.5 mm, is also defined.

| SMILES | Dissolution time in water at 20° C. (production of a 4.8% by weight solution) [1] [min] | % by weight of particles passing through a sieve with a mesh size of 100 μm (level of fine particles) [2] [% by weight] | Loose bulk density [3] [g/mL] | Tapped bulk density [3] [g/mL] | Dissolution time in acrylic acid at 20° C. (production of a 2.0% by weight solution) [4] [min] | % by weight of particles passing through a sieve with a mesh size of 100 μm (level of fine particles) ([2]; listed as hydroquinone in the powder form) [% by weight] | percentage by weight of the particles with dimensions of less than 2.5 mm [5] [% by weight] |
| --- | --- | --- | --- | --- | --- | --- | --- |
| Oc1ccc(O)cc1 [Example 4, hydroquinone] | 14 | 0.8 | 0.46 | 0.61 | 30 | – | – |
| Oc1ccc(O)cc1 [Example 2, hydroquinone] | 15 | 0.7 | 0.47 | 0.65 | 30 | – | – |
| Oc1ccc(O)cc1 [Example 5, hydroquinone] | 14 | 0.9 | 0.53 | 0.66 | 30 | – | – |
| Oc1ccc(O)cc1 [hydroquinone powder, hydroquinone] | 9 | – | – | – | 20 | ~20 | 100 |
| Oc1ccc(O)cc1 [Example 1, hydroquinone] | 21 | 0.8 | 0.52 | 0.70 | 45 | – | – |
| Oc1ccc(O)cc1 [Example 3, hydroquinone] | 18 | 0.9 | 0.48 | 0.67 | 35 | – | – |
